Reference: ChEMBL document CHEMBL1139566, “Discovery of AICAR Tfase inhibitors that disrupt requisite enzyme dimerization” (Bioorg Med Chem Lett, 2005)
Calls of active or inactive are those of the source. The rule behind the calls is not given here. Peptide text beside a SMILES is read from it. * marks the point of attachment. NHPhenethyl = c1ccc(CCN*)cc1; Bz = O=C(c1ccccc1)*

What follows are compounds tested against T1, Bifunctional purine biosynthesis protein ATIC (Homo sapiens, UniProt P31939) (assay: Average inhibition of AICAR formyltransferase at 25 uM and 50 uM concentration relative to cappsin 2; Inactive).
Target sequence in this assay (P31939 whole entry, looked up): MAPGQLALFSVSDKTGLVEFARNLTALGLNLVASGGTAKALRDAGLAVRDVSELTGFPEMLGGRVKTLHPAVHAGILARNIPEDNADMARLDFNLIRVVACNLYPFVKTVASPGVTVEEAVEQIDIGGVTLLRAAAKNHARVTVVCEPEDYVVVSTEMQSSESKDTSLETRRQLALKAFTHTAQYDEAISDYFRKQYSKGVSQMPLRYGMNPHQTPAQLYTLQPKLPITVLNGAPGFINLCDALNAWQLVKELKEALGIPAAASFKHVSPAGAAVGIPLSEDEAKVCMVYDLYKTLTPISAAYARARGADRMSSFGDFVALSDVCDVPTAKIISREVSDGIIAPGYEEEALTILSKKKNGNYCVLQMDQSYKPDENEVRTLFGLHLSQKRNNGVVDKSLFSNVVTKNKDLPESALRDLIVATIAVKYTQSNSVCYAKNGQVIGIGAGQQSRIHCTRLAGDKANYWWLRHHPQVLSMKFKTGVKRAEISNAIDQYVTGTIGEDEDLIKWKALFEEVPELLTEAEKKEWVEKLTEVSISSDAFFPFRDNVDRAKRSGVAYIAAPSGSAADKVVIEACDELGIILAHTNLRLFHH

Structure (SMILES)	inhibition
Cc1cccc(C(=O)NCC(=O)NCC(=O)NCCc2ccccc2)c1	inactive
COC(=O)CN(CC(=O)NCCc1ccccc1)C(=O)CNC(=O)c1cccc(I)c1	inactive
COc1cccc(C(=O)NCC(=O)NCC(=O)NCCc2ccccc2)c1	inactive
O=C(CNC(=O)CNC(=O)c1ccccc1)NCCc1ccccc1 (Bz-Gly-Gly-NHPhenethyl)	inactive
CNC(=O)CNC(=O)CNC(=O)c1cccc(I)c1	inactive

Continued, values first:

inhibition	Structure (SMILES)
inactive	O=C(CNC(=O)c1cccc(I)c1)NCC(=O)OCCc1ccccc1
inactive	O=C(CNC(=O)CNC(=O)c1ccccc1I)NCCc1ccccc1
inactive	CCCNC(=O)CNC(=O)CNC(=O)c1cccc(I)c1
inactive	CN(CC(=O)NCCc1ccccc1)C(=O)CNC(=O)c1cccc(I)c1
inactive	O=C(CNC(=O)CNC(=O)c1cccc([N+](=O)[O-])c1)NCCc1ccccc1

Each compound was assayed against T1, Bifunctional purine biosynthesis protein ATIC (assay: Inhibition constant against AICAR formyltransferase).
Target sequence in this assay (P31939 whole entry): as the sequence (P31939 whole entry, looked up) above

Ki [µM]	Structure (SMILES)
8	O=C(CNC(=O)CNC(=O)c1cccc(I)c1)NCCc1ccccc1
3.1	COc1ccc(CNC(=O)CN(CC(=O)NCCc2ccccc2)C(=O)CNC(=O)c2cccc(I)c2)cc1
